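Growth conditions: 96-well plates. Treatment: test compound, 48 hours, 5 concentrations. Analysis: linear interpolation between bracketing concentrations; unreached endpoints set to highest concentration. Abbreviation: GI50, concentration required for 50% inhibition of growth.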 Active and inactive are the calls of the source. No stated cut-off is given here; in the data, active = GI50 up to about 1.1 µM and inactive = higher.
Legend:
Assay in all cases: NCI-60 cell line screen, 48 h
[1] = test system: CAKI-1
[2] = test system: RXF 393
[3] = test system: MCF7
[4] = test system: MDA-N
[5] = test system: M14
[6] = test system: U-251
[7] = test system: EKVX
[8] = test system: KM12
[9] = test system: LOX IMVI
[10] = test system: MDA-MB-435
[11] = test system: SR
[12] = test system: Hs-578T
[13] = test system: SF-539
[14] = test system: HCT-15
[15] = test system: HT-29
[16] = test system: IGROV-1
[17] = test system: RPMI-8226
[18] = test system: K562
[19] = test system: DU-145
[20] = test system: HCC 2998

Row | Compound | GI50 [1] | GI50 [2] | GI50 [3] | GI50 [4] | GI50 [5] | GI50 [6] | GI50 [7] | GI50 [8] | GI50 [9] | GI50 [10] | GI50 [11] | GI50 [12] | GI50 [13] | GI50 [14] [µM] | GI50 [15] | GI50 [16] | GI50 [17] | GI50 [18] | GI50 [19] | GI50 [20]
1 | c1cncc(CNc2ncn[nH]2)c1 | > 100 µM (inactive) | > 100 µM (inactive) | > 100 µM (inactive) | > 100 µM (inactive) | > 100 µM (inactive) | > 100 µM (inactive) | > 100 µM (inactive) | > 100 µM (inactive) | > 100 µM (inactive) | > 100 µM (inactive) | > 100 µM (inactive) | > 100 µM (inactive) | > 100 µM (inactive) | > 100 | > 100 µM (inactive) | > 100 µM (inactive) | > 100 µM (inactive) | > 100 µM (inactive) | > 100 µM (inactive) | –
2 | CC(C)c1cc(C(F)(F)F)nc(NNc2nc(C(C)C)cc(C(F)(F)F)n2)n1 | 64.7 µM (inactive) | 32.4 µM (inactive) | > 100 µM (inactive) | > 100 µM (inactive) | 67.9 µM (inactive) | 45.8 µM (inactive) | 67.5 µM (inactive) | > 100 µM (inactive) | – | > 100 µM (inactive) | > 100 µM (inactive) | 79.4 µM (inactive) | 90.8 µM (inactive) | > 100 | > 100 µM (inactive) | > 100 µM (inactive) | > 100 µM (inactive) | > 100 µM (inactive) | > 100 µM (inactive) | –
3 | COc1ccc2c(c1O)C13CCN(C)C(C2)C1CCC1(C3)OCCO1 (configuration not stated) | > 100 µM (inactive) | > 100 µM (inactive) | > 100 µM (inactive) | > 100 µM (inactive) | > 100 µM (inactive) | > 100 µM (inactive) | > 100 µM (inactive) | > 100 µM (inactive) | > 100 µM (inactive) | > 100 µM (inactive) | > 100 µM (inactive) | > 100 µM (inactive) | – | > 100 | > 100 µM (inactive) | > 100 µM (inactive) | > 100 µM (inactive) | – | > 100 µM (inactive) | > 100 µM (inactive)
4 | COc1ccc(-c2[nH]c3c4c(nc5c(c24)C(=O)CC(C)(C)C5)CC(C)(C)C3)cc1 | 70.5 µM (inactive) | 73.5 µM (inactive) | 58.3 µM (inactive) | 47.4 µM (inactive) | > 100 µM (inactive) | 48.9 µM (inactive) | 47.3 µM (inactive) | 40.4 µM (inactive) | 68.7 µM (inactive) | 50.2 µM (inactive) | 13.2 µM (inactive) | 93.1 µM (inactive) | 67.6 µM (inactive) | 54.2 | 43.9 µM (inactive) | – | – | 28.4 µM (inactive) | > 100 µM (inactive) | 55.6 µM (inactive)
5 | O=C(CN1CCOCC1)c1ccc2[nH]c(=O)oc2c1 | > 100 µM (inactive) | > 100 µM (inactive) | > 100 µM (inactive) | > 100 µM (inactive) | > 100 µM (inactive) | > 100 µM (inactive) | > 100 µM (inactive) | > 100 µM (inactive) | > 100 µM (inactive) | > 100 µM (inactive) | > 100 µM (inactive) | > 100 µM (inactive) | > 100 µM (inactive) | > 100 | > 100 µM (inactive) | > 100 µM (inactive) | > 100 µM (inactive) | > 100 µM (inactive) | > 100 µM (inactive) | –
6 | CCOC(=O)c1c(C)noc1/N=N/N(CCO)CCO | 61 µM (inactive) | 15.1 µM (inactive) | 29.1 µM (inactive) | 27.7 µM (inactive) | 49.5 µM (inactive) | 28.4 µM (inactive) | 39.9 µM (inactive) | 36.6 µM (inactive) | 32.4 µM (inactive) | 34 µM (inactive) | 19.9 µM (inactive) | 63.4 µM (inactive) | – | 41.5 | 33.4 µM (inactive) | 36.6 µM (inactive) | – | 29 µM (inactive) | 49.7 µM (inactive) | 22.3 µM (inactive)
7 | Cc1nn(CNc2ccc(F)c(Cl)c2)c(=S)n1/N=C/c1ccc(-c2ccc(Cl)cc2Cl)o1 | 16.8 µM (inactive) | 17.9 µM (inactive) | 18.2 µM (inactive) | 17.7 µM (inactive) | 18.7 µM (inactive) | 14.7 µM (inactive) | 16.4 µM (inactive) | 20.5 µM (inactive) | 16.6 µM (inactive) | 17.6 µM (inactive) | 1.4 µM (inactive) | 15.5 µM (inactive) | 16.8 µM (inactive) | 16.9 | 19.6 µM (inactive) | 16.7 µM (inactive) | 14.8 µM (inactive) | 1.49 µM (inactive) | 16.9 µM (inactive) | –
8 | Nc1nc(Nc2ccc(Cl)cc2)sc1C(=O)c1c[nH]c2ccccc12 | – | 9.27 µM (inactive) | 13.8 µM (inactive) | 12.4 µM (inactive) | 11.2 µM (inactive) | 12.2 µM (inactive) | – | 14 µM (inactive) | 18.2 µM (inactive) | 12.9 µM (inactive) | 5.74 µM (inactive) | 21.6 µM (inactive) | 15.8 µM (inactive) | 3.87 | 6.78 µM (inactive) | 17.3 µM (inactive) | 11.6 µM (inactive) | 6.18 µM (inactive) | 14.2 µM (inactive) | 11.3 µM (inactive)
9 | COc1cc(/C=C2\CCC(C)c3c2nc(N)c(C#N)c3-c2cc(OC)c(OC)c(OC)c2)cc(OC)c1OC (configuration not stated) | > 100 µM (inactive) | 73.3 µM (inactive) | 29.9 µM (inactive) | > 100 µM (inactive) | 45.7 µM (inactive) | 46 µM (inactive) | 34.5 µM (inactive) | 51.6 µM (inactive) | 41.5 µM (inactive) | > 100 µM (inactive) | 25.8 µM (inactive) | 18.7 µM (inactive) | – | 27.1 | 33.3 µM (inactive) | 0.984 µM (active) | 56.2 µM (inactive) | 28.6 µM (inactive) | 55.2 µM (inactive) | –
10 | COc1ccc(C2CC(c3c(O)ccc4ccccc34)=NN2C(C)=O)cc1OC (configuration not stated) | 36.5 µM (inactive) | 24.1 µM (inactive) | 23.7 µM (inactive) | 20.7 µM (inactive) | 24.1 µM (inactive) | 29.6 µM (inactive) | – | 34.2 µM (inactive) | – | 21.3 µM (inactive) | 14.2 µM (inactive) | 36.9 µM (inactive) | 18.7 µM (inactive) | 30.1 | 40 µM (inactive) | 38.7 µM (inactive) | 12 µM (inactive) | 13.7 µM (inactive) | 36.2 µM (inactive) | 23.7 µM (inactive)
11 | C[C@]12C(=O)C=CCC1=CC[C@@H]1[C@@H]2[C@H]2CC3(O)C(=O)O[C@@]4(C)[C@H]5C[C@@]6(C)[C@@H]7[C@@]2(O)[C@]1(OC[C@H]6C(=O)O5)O[C@]734 (some centres not stated) | 40.7 µM (inactive) | 20.2 µM (inactive) | 31.7 µM (inactive) | 37.9 µM (inactive) | 28.8 µM (inactive) | 34.6 µM (inactive) | 43.9 µM (inactive) | 30.5 µM (inactive) | 27.4 µM (inactive) | 36.6 µM (inactive) | 28.4 µM (inactive) | 51.1 µM (inactive) | 17.7 µM (inactive) | 53.7 | 40.1 µM (inactive) | 40.1 µM (inactive) | 34.8 µM (inactive) | 38.2 µM (inactive) | 58.2 µM (inactive) | –
12 | COC(=O)CCSC1=CC(=O)c2nc3ccccc3c3ccnc1c23 | 18.8 µM (inactive) | 20.3 µM (inactive) | 20.2 µM (inactive) | 28 µM (inactive) | 21.9 µM (inactive) | 32.4 µM (inactive) | 18.9 µM (inactive) | 16.2 µM (inactive) | – | 7.4 µM (inactive) | 5.32 µM (inactive) | 23.4 µM (inactive) | 15.7 µM (inactive) | 13.6 | 18 µM (inactive) | 16.7 µM (inactive) | 23.6 µM (inactive) | 8.47 µM (inactive) | 22.2 µM (inactive) | 14.3 µM (inactive)
13 | Cc1ccc(-c2n[nH]c(=O)n2/N=C\c2ccccc2O)cc1 | > 100 µM (inactive) | 57.8 µM (inactive) | 55.6 µM (inactive) | > 100 µM (inactive) | > 100 µM (inactive) | > 100 µM (inactive) | > 100 µM (inactive) | > 100 µM (inactive) | – | > 100 µM (inactive) | > 100 µM (inactive) | 51.4 µM (inactive) | > 100 µM (inactive) | > 100 | > 100 µM (inactive) | > 100 µM (inactive) | > 100 µM (inactive) | > 100 µM (inactive) | > 100 µM (inactive) | > 100 µM (inactive)
14 | COC(=O)/C=C\[C@@H]1[C@H](C)N1S(=O)(=O)c1ccc(C)cc1 (some centres not stated) | > 100 µM (inactive) | > 100 µM (inactive) | > 100 µM (inactive) | > 100 µM (inactive) | > 100 µM (inactive) | > 100 µM (inactive) | – | – | > 100 µM (inactive) | > 100 µM (inactive) | > 100 µM (inactive) | > 100 µM (inactive) | > 100 µM (inactive) | > 100 | > 100 µM (inactive) | > 100 µM (inactive) | > 100 µM (inactive) | > 100 µM (inactive) | > 100 µM (inactive) | > 100 µM (inactive)
15 | O=c1c(Cc2ccc(Cl)cc2)nnc2sc(-c3ccc([N+](=O)[O-])cc3)nn12 | 31.1 µM (inactive) | 24.3 µM (inactive) | 19.6 µM (inactive) | 24.7 µM (inactive) | 16.9 µM (inactive) | 29 µM (inactive) | 23.2 µM (inactive) | 26.4 µM (inactive) | 29.2 µM (inactive) | 14.5 µM (inactive) | 22.1 µM (inactive) | 42 µM (inactive) | – | 14.6 | 30.1 µM (inactive) | 36.9 µM (inactive) | 21.3 µM (inactive) | 15.6 µM (inactive) | 29.8 µM (inactive) | 17.9 µM (inactive)

From ChEMBL document CHEMBL1201862, “PubChem BioAssay data set” (2004)
